Assays:
[1] = tested on: liver lysosomal (enzyme) extract; assay: Digestion assay with rat liver lysosomal extract; type: biochemical; details: for velocity of digestion, addition of phenylalanine: 54 vs 57, 56 vs 59; for rate and time to completion of digestion, proline at A1 changed to alanine: 33 vs 30, 39 vs 23; for Velocity, Sample / Velocity, Normalized: Table 3; for Velocity, Sample: FCitFP linker with various R5
Experimental: Various amino acid combinations, tetrapeptides, were used to link various first moieties (R^5) and an AENA report group second compound (R^6) to form assay substrates (substrates). Cleavage rate of the peptides were evaluated by analysis of digestion of the substrates in the presence of rat lysosomal extract.
Reporting groups were coupled to the C-terminus of the peptide substrates as described above for UV-vis monitoring to explore the influence of amino acid sequence on kinetics of peptide degradation by HPLC. N-(2-aminoethyl)-4-nitroaniline (AENA) or N-(aminoethyl)-5-napthylamine-1-sulfonic acid (EDANS) were used as reporting groups for HPLC monitoring as neither absorptivity nor lambda maximum were affected for either after cleavage from the peptide. The N-terminus of each peptide substrate was modified with either methoxy polyethylene glycol (PEG12) or N-acetyl galactosamine (NAG(OR)3) (FIG. 1).
Proteolytic digestion experiments were carried out at a fixed substrate concentration (0.51 μmol) using liver lysosomal (enzyme) extract (0.45 μg/μL) in a 25 mM MES solution buffered to pH 5 containing 1% CHAPS and 1.8 mM DTT incubated at 37° C. Enzyme extract was activated in the presence of DTT for 15 minutes at 37° C. prior to addition of AENA labeled peptide substrates. At various time points, up to 26 h, 20 μL aliquots were removed and acidified to a pH of 3 with TFA. Analysis of fractions was performed using HPLC with a Aquasil C18 reverse-phase column (250×4.6, Thermofisher, Waltham, Mass.), monitored at 390 nm and 335 nm for AENA and EDANS respectively. Elution was performed with a gradient of acetonitrile and water buffered with 0.1% formic acid. Generation of unmodified reporter molecule was measured. To minimize freeze thaw cycles the lysosomal extract was dispensed into multiple aliquots prior to storage at −80° C. A new aliquot was employed for each study and used immediately upon thawing. Lysosomal extract was sourced from female Hans Wistar rats by differential density gradient centrifugation (Graham et al. 2000). Protein concentration of lysosomal extract was determined by standard BCA protein assay protocols. […]
Rate (also called velocity of degradation or velocity) was extrapolated during early linear turnover (Table 2). As used herein, rate is defined as the linear rate of reporting group generation at less than 50% completion (digestion rate was assumed to be linear at less than 50% completion). For substrates in which cleavage deviated from consecutive first order kinetics, the percent of reporting group liberated at the endpoint of digestion was used as a metric for comparison.

Factor VII = assay: Serum Factor VII activity after DPC-mediated siRNA delivery in mice; type: in vivo; details: for effectiveness as modifying agent in DPC-mediated siRNA delivery: Factor VII knockdown; for Relative F VII activity: polymer-siRNA conjugate modified with the PEG-peptide agent and CDM-NAG, 1 mg/kg polymer, 0.25 mg/kg siRNA, day 5
Experimental: PEG tetrapeptide modifying agents were synthesized by using a PEG group at R^5 and an activated ester at R^7 (formula V). Membrane active polyamines (see below) were modified with Factor VII siRNA, CDM-NAG and the indicated tetrapeptide (45b, 46) or tripeptide control (47) modifying agents as previously described (U.S. Pat. Nos. 8,137,695 and 8,426,554) to form a dynamic polyconjugate delivery polymer. 1 mg/kg polymer conjugated to 0.25 mg/kg siRNA was then injected into mice. At day 5, samples were collected and assayed for Factor VII. Knockdown of Factor VII requires cleavage of the modifying agent from the polyamine at a rate similar to the previously described CDM masking agents and dipeptide-PABC masking agents. […] For dynamic polyconjugate delivery polymers modified with PEG12 functionalized tetrapeptides, the order of increasing knockdown in vivo (45b>46>47) correlated with in vitro kinetic results. Validation of the in vitro model for kinetic evaluation was shown by the results obtained in animal studies.
Polyacrylate EAB in 5 mM pH 8.0 HEPES buffer was modified 1.5 wt % with a N-hydroxysuccinimidyl activated PEG4 azide (Azido-dPEG4-NHS ester from Quanta Biodesign) to provide azide groups for subsequent attachment of siRNA. The azide-modified polymer was then diluted to 5 mg/mL in 60 mg/mL HEPES base. To this solution was added 15 mg/mL (3 wt equivalents) of the indicated protease-cleavable PEG modifying reagents (the described herein tetrapeptide agents or PEG12-FCit-PABC-PNP (8426554) to modify 40-50% of available amine groups. After 1 h, DBCO-modified rodent factor VII siRNA (0.25 wt eq relative to polymer) was added to polymer solution. After incubation overnight, conjugates were further modified by addition of molar excess relative to available amine groups of an N-acetylgalactosamine derivative CDM-NAG, NAG-A^4-A^3-A^2-A^1-NHS or NAG-ACit-PABC-PNP (U.S. Pat. No. 8,426,554, Rozema et al. 2015, Carlson et al. 2015), and incubated for 30 min to reversibly modify remaining polymer EAB amines.
Male Wistar Han rats and female ICR mice, 6 to 8 weeks old, were obtained from Harlan Sprague-Dawley, (Indianapolis, Ind.). Animals were handled in accordance with animal used protocols approved by the Animal Care and Use Committee at Arrowhead Madison Inc. Rodents were maintained on a 12 hours light/dark cycle with free access to water and food (Harlan Teklad Rodent Diet, Harlan, Madison, Wis.). Animals were injected with 1 mg/kg polymer conjugated to 0.25 mg/kg siRNA. Samples were collected 5 days post injection.
FVII activity in serum was measured with a chromogenic method using a test kit (BIOPHEN VII, Aniara, Mason, Ohio) following manufacturer's recommendations. Absorbance of colorimetric development was measured using a Tecan Safire-2 microplate reader at 405 nm.

[2] = Table 4, dipeptide EDANS C-terminal modified substrates
[3] = Table 4, dipeptide EDANS substrates, normalized with compound 60
[4] = AENA substrates, linear rate of reporter generation at <50% completion, pH 5, 37° C.
[5] = AENA substrates, normalized with compound 60 velocity (average 123.8 nmol/h)

Row | Sample Velocity [1, 2] | Normalized Velocity [1, 3] | Sample Velocity [1, 4] | Normalized Velocity [1, 5] | Substance | also measured
1 | 7.9 nmol/h | 7.2 nmol/h | – | – | H2N-A-PEG4-Glu(EDANS)-NH-(CH2)2-OH [Compound 59] | –
2 | 58.3 nmol/h | 53.3 nmol/h | – | – | H2N-L-PEG4-Glu(EDANS)-NH-(CH2)2-OH [Compound 57] | –
3 | 156.5 nmol/h | 151.9 nmol/h | – | – | H2N-NP-PEG4-Glu(EDANS)-NH-(CH2)2-OH [Compound 52] | –
4 | 145.0 nmol/h | 140.7 nmol/h | – | – | H2N-SP-PEG4-Glu(EDANS)-NH-(CH2)2-OH [Compound 53] | –
5 | 213.5 nmol/h | 195.5 nmol/h | – | – | H2N-VP-PEG4-Glu(EDANS)-NH-(CH2)2-OH [Compound 50] | –
6 | – | – | 1.6 nmol/h | 1.6 nmol/h | NAG(OAc)3-AAA- AENA [Compound 41] | % Released at Endpoint (21 hr) [1]: 8.2%
7 | – | – | 119.5 nmol/h | 102.5 nmol/h | NAG(OAc)3-FCitVP- AENA [Compound 26] | % Released at Endpoint (21 hr) [1]: 97.8%
8 | – | – | 84.3 nmol/h | 75.8 nmol/h | NAG(OAc)3-VCitFP- AENA [Compound 28] | % Released at Endpoint ([1]; endpoint at 23 hours): *99.4%
9 | – | – | 49.5 nmol/h | 49.6 nmol/h | PEG12-ACitFP- AENA [Compound 31] | % Released at Endpoint ([1]; endpoint at 23 hours): *98.9%
10 | – | – | 62.5 nmol/h | 62.6 nmol/h | PEG12-FCitF(Nme)A- AENA [Compound 29] | rate and completion of digestion, N-methylation at A1 ([1]; 29 vs 39): faster rate and faster completion of digestion; % Released at Endpoint ([1]; endpoint at 23 hours): *97.3%
11 | – | – | 94.5 nmol/h | 94.7 nmol/h | PEG12-FCitFL- AENA [Compound 27] | % Released at Endpoint ([1]; endpoint at 24 hours): **99.7%
12 | – | – | 42.0 nmol/h | 38.6 nmol/h | PEG12-FNFP- AENA [Compound 32b] | % Released at Endpoint ([1]; endpoint at 26 hours): ***99.3%

The next lines start with the substance.

Row | Substance | Sample Velocity [1, 2] | Normalized Velocity [1, 3] | Sample Velocity [1, 4] | Normalized Velocity [1, 5] | also measured
13 | H2N-AP-PEG4-Glu(EDANS)-NH-(CH2)2-OH [Compound 55] | 125.7 nmol/h | 115.1 nmol/h | – | – | –
14 | H2N-F(Nme)A-Glu(EDANS)-NH-(CH2)2-OH [Compound 51] | 177.6 nmol/h | 162.6 nmol/h | – | – | –
15 | H2N-FA-PEG4-Glu(EDANS)-NH-(CH2)2-OH [Compound 56] | 61.3 nmol/h | 56.1 nmol/h | – | – | velocity of digestion, addition of phenylalanine [1]: substantial increase in the velocity of digestion
16 | H2N-FL-PEG4-Glu(EDANS)-NH-(CH2)2-OH [Compound 54] | 155.0 nmol/h | 132.4 nmol/h | – | – | velocity of digestion, addition of phenylalanine [1]: substantial increase in the velocity of digestion
17 | H2N-FP-PEG4-Glu(EDANS)-NH-(CH2)2-OH [Compound 48] | 448.5 nmol/h | 383.0 nmol/h | – | – | –
18 | H2N-GP-PEG4-Glu(EDANS)-NH-(CH2)2-OH [Compound 58] | 14.4 nmol/h | 13.9 nmol/h | – | – | –
19 | H2N-LP-PEG4-Glu(EDANS)-NH-(CH2)2-OH [Compound 49] | 349.1 nmol/h | 338.7 nmol/h | – | – | –
20 | NAG(OAc)3-ACA- AENA [Compound 43] | – | – | – | – | % Released at Endpoint (21 hr) [1]: 1.1%
21 | NAG(OAc)3-ACitAA- AENA [Compound 35] | – | – | – | – | % Released at Endpoint (21 hr) [1]: 49.8%
22 | NAG(OAc)3-CitAA- AENA [Compound 40] | – | – | 3.7 nmol/h | 3.9 nmol/h | % Released at Endpoint (21 hr) [1]: 15.6%
23 | NAG(OAc)3-CitAAA- AENA [Compound 36] | – | – | – | – | % Released at Endpoint ([1]; endpoint at 24 hours): **47.7%
24 | NAG(OAc)3-FCitFA- AENA [Compound 39] | – | – | – | – | rate and time to completion of digestion, proline at A1 changed to alanine [1]: dramatic reduction in rate and time to completion of digestion; % Released at Endpoint (21 hr) [1]: 40.5%
25 | NAG(OAc)3-FCitFP-AENA [Compound 22a] | – | – | – | – | rate of proteolytic digestion, influence of R5 ([1]; 22a vs 23, 22a vs 22b): essentially equivalent in terms of rate of proteolytic digestion; Velocity, Sample [1]: 244.9 nmol/h; Velocity, Normalized ([1]; normalized with compound 60): 210.5 nmol/h
26 | NAG(OH)3-FCitAA- AENA [Compound 33] | – | – | – | – | rate and time to completion of digestion, proline at A1 changed to alanine [1]: dramatic reduction in rate and time to completion of digestion; % Released at Endpoint (21 hr) [1]: 68.5%
27 | NAG(OH)3-FCitFP-AENA [Compound 22b] | – | – | – | – | Velocity, Sample [1]: 223.7 nmol/h; Velocity, Normalized ([1]; normalized with compound 60): 201.0 nmol/h
28 | PEG12-FDFP- AENA [Compound 34b] | – | – | 18.0 nmol/h | 16.6 nmol/h | % Released at Endpoint ([1]; endpoint at 26 hours): ***66.5%
29 | PEG12-FKFL- AENA [Compound 25b] | – | – | 117.0 nmol/h | 117.4 nmol/h | % Released at Endpoint ([1]; endpoint at 24 hours): **99.8%
30 | PEG12-FKFP- AENA [Compound 24b] | – | – | 134.8 nmol/h | 123.9 nmol/h | velocity, proline vs leucine at A1 ([1]; 23 vs 27, 24b vs 25b): small increase in velocity; % Released at Endpoint ([1]; endpoint at 26 hours): ***98.9%
31 | PEG12-GFLG- AENA [Compound 38] | – | – | 10.0 nmol/h | 9.7 nmol/h | % Released at Endpoint ([1]; endpoint at 24 hours): **47.8%
32 | PEG-ACitAP-OSu [Compound 46] | – | – | – | – | effectiveness as modifying agent in DPC-mediated siRNA delivery (Factor VII): effective modifying agents; Relative F VII activity (Factor VII): 66 ± 28
33 | PEG-CitAP-OSu [Compound 47] | – | – | – | – | Relative F VII activity (Factor VII): 97 ± 34
34 | PEG-FCitAP-OSu [Compound 45b] | – | – | – | – | effectiveness as modifying agent in DPC-mediated siRNA delivery (Factor VII): effective modifying agents; Relative F VII activity (Factor VII): 40 ± 06
